Experiment: Conversion of (R)-P88 and (S)-P88 to iloperidone in human liver S9 fraction in the presence of NAD and NADP
Format: in vitro ADME
Settings: 13 concentrations 1 to 100 μM, initial rate conditions
Protocol: The aim of this study was to evaluate the potential conversion of (R)-P88 and (S)-P88 to iloperidone in human liver S9 fraction in the presence of NAD and NADP. A copy of the final report from this study, entitled, “InVitro Metabolism of (R)-P88 and (S)-P88 in Human Liver S9 Fraction,” (“Final Report”) is attached.
Three concentrations of (R)-P88 and (S)-P88 (1, 10 and 100 μM) were incubated with human liver S9 fractions in the presence of NAD and NADP. Under initial rate conditions, 13 concentrations of (R)-P88 and (S)-P88 (1 to 100 μM) were incubated with human liver S9 fractions to determine the Michaelis-Menten enzyme kinetic constants, Km and Vmax, for the formation of iloperidone.

Row | SMILES | Enzyme kinetic behaviour of the conversion to iloperidone (plot shape / best-fit model)
1 | COc1cc([C@@H](C)O)ccc1OCCCN1CCC(c2noc3cc(F)ccc23)CC1 [R-P88] | slightly S-shaped direct plot and “hook”-shaped Eadie-Hofstee plot suggesting allosteric interactions
2 | COc1cc([C@H](C)O)ccc1OCCCN1CCC(c2noc3cc(F)ccc23)CC1 [S-P88] | best fit a biphasic saturation enzyme model

Reference: patent US10874659B2, “Iloperidone metabolite for use in the treatment of psychiatric disorders” (Vanda Pharmaceuticals, Inc., priority 2012, dated 2020)
